Consider 15 molecules from ChEMBL document CHEMBL3865781, “Recent advances in the discovery and development of antibacterial agents targeting the cell-division protein FtsZ” (Bioorg Med Chem, 2016).

In brackets after ≈: the same amount, converted by molar mass.

The subject of assay [1] is Staphylococcus aureus. Briefly: Antibacterial activity against methicillin-resistant Staphylococcus aureus ATCC BAA-41 after 18 hrs by broth microdilution method. The class given is functional. Conditions: ATCC BAA-41, 18 h.
The subject of another assay is Klebsiella pneumoniae. The assay is described as follows: Antibacterial activity against Klebsiella pneumoniae ATCC BAA-1144 after 18 hrs by broth microdilution method. The assay is classed as functional. Conditions: ATCC BAA-1144, 18 h. (Broth dilution looks for growth in wells or tubes with falling amounts of substance.)
In assay [2] the test system is Enterococcus faecalis. The assay is described as follows: Antimicrobial activity against vancomycin-sensitive Enterococcus faecalis after 18 hrs by broth microdilution method. The class given is functional.
For assay [3], the system named is Staphylococcus aureus. Briefly: Antibacterial activity against methicillin-sensitive Staphylococcus aureus after 18 hrs by broth microdilution method. The class given is functional.
The next assay has as its system Escherichia coli. The assay is described as follows: Antibacterial activity against Escherichia coli ATCC 25922 after 18 hrs by broth microdilution method. To be noted: ATCC 25922, 18 h. The class given is functional.
Assay [4] concerns Mycobacterium tuberculosis. Briefly: Antibacterial activity against Mycobacterium tuberculosis NHN382 clinical isolates measured every 24 hrs for 7 days by MABA assay. The assay is classed as functional. (In general: Resazurin is reduced to fluorescent resorufin, in cell work by metabolically active cells.)
Assay [5] concerns Mycobacterium tuberculosis. The assay is described as follows: Antibacterial activity against Mycobacterium tuberculosis W210 clinical isolates measured every 24 hrs for 7 days by MABA assay. The assay is classed as functional.
The subject of assay [6] is Mycobacterium tuberculosis. The assay is described as follows: Antibacterial activity against Mycobacterium tuberculosis TN587 clinical isolates measured every 24 hrs for 7 days by MABA assay. The assay is classed as functional.
Assay [7] deals with Mycobacterium tuberculosis. Briefly: In vivo antibacterial activity against Mycobacterium tuberculosis str. Erdman infected in C57BL/6 mouse assessed as reduction in bacterial load in lungs at 50 mg/kg, ip bid on day 5 to 14 post infection measured on day 15 post infection. The class given is functional, Erdman = ATCC 35801.
The test system of assay [8] is Mycobacterium tuberculosis. The assay is described as follows: Antibacterial activity against Mycobacterium tuberculosis H37Rv measured every 24 hrs for 7 days by MABA assay. The assay is classed as functional.
In assay [9] the test system is Mycobacterium tuberculosis. Briefly: In vivo antibacterial activity against Mycobacterium tuberculosis H37Rv infected in GKO-TB mouse assessed as reduction in bacterial load in spleen at 50 mg/kg, ip or po bid for 10 consecutive days. The assay is classed as functional.
The test system of assay [10] is Mycobacterium tuberculosis. Briefly: Antibacterial activity against Mycobacterium tuberculosis NHN20 clinical isolates measured every 24 hrs for 7 days by MABA assay. The class given is functional.
The nature of assay [11]: Displacement of mant-GTP from Bacillus subtilis FtsZ by spectrofluorometric assay.
For another assay, the system named is Bacillus subtilis. Briefly: Antibacterial activity against Bacillus subtilis. The assay is classed as functional.
Assay [12] can be described thus: Inhibition of Escherichia coli FtsZ GTPase activity expressed in Escherichia coli BL21 preincubated for 5 mins followed by GTP addition after 15 mins by malachite green based spectrophotometric analysis.
The nature of assay [13]: Inhibition of Escherichia coli FtsZ polymerization expressed in Escherichia coli BL21 assessed as reduction in light scattering intensity in presence of GTP by fluorescence spectrometric analysis.
In assay [14] the test system is Enterococcus faecalis. The assay is described as follows: Antimicrobial activity against vancomycin-resistant Enterococcus faecalis after 18 hrs by broth microdilution method. The assay is classed as functional.

In general, MIC refers to the least concentration at which growth counts as inhibited. Regarding `COc1cc(C/C=C(/Cl)Cc2cc(O)cc(O)c2)c(OC)cc1Cl`, the minimal inhibitory concentration (MIC) against Staphylococcus aureus [1] lay within 2 to 8 µg/mL (≈ 5.42 to 21.7 µM); in the assay on Klebsiella pneumoniae, 32 to 128 µg/mL (≈ 86.7 to 347 µM); with Enterococcus faecalis [2], 4 to 16 µg/mL (≈ 10.8 to 43.3 µM); against Staphylococcus aureus [3], 2 to 8 µg/mL (≈ 5.42 to 21.7 µM); against Escherichia coli it was 32 to 128 µg/mL (≈ 86.7 to 347 µM).
For `COc1cc(/C=C/C(=O)O)ccc1O` [FERULATE], the MIC against Staphylococcus aureus [1] lay within 2 to 8 µg/mL (≈ 10.3 to 41.2 µM); with Klebsiella pneumoniae it was 32 to 128 µg/mL (≈ 165 to 659 µM); with Enterococcus faecalis [2], 4 to 16 µg/mL (≈ 20.6 to 82.4 µM); against Staphylococcus aureus [3], 2 to 8 µg/mL (≈ 10.3 to 41.2 µM); against Escherichia coli, 32 to 128 µg/mL (≈ 165 to 659 µM).
As a reminder, the MIC99 is an inhibitory concentration at the 99% level, which refers to growth in some studies and to a panel of isolates in others. For the molecule `CN(C)c1cc2[nH]c(C3CCCCC3)nc2cc1NC(=O)c1ccc(C(F)(F)F)cc1F`, the MIC99 in [4] turned out to be 0.16 µg/mL (≈ 0.357 µM); in [5], 0.31 µg/mL (≈ 0.691 µM); in [6], 0.24 µg/mL (≈ 0.535 µM); in [8], 0.18 µg/mL (≈ 0.401 µM); in assay [10] it was 0.16 µg/mL (≈ 0.357 µM). Also, the Activity in assay [7] is reported as 5.7 - 6.3 log10CFU; in assay [9], 3.9 - 5 log10CFU.
As for `CN(C)c1cc2[nH]c(C3CCCCC3)nc2cc1NC(=O)c1ccc(OC(F)(F)F)cc1F`, the MIC99 in assay [4] is 0.31 µg/mL (≈ 0.667 µM); in assay [5], 0.47 µg/mL (≈ 1.01 µM); in assay [6] it was 0.31 µg/mL (≈ 0.667 µM); in assay [8], 0.31 µg/mL (≈ 0.667 µM); in assay [10], 0.24 µg/mL (≈ 0.517 µM). The Activity was 5.7 - 6.3 log10CFU in [7] and 3.9 - 5 log10CFU in [9].
In general, Kd refers to the constant that tells how readily two partners part at equilibrium. For `O=C(Oc1cc(OC(=O)c2cc(O)cc(O)c2)c2ccccc2c1)c1cc(O)cc(O)c1`, in assay [11], the Kd lay within 0.4 to 0.8 µM. For the same molecule, inhibition of growth against Bacillus subtilis (MIC) required 25 µM (≈ 10.8 µg/mL).
For orientation: IC50 means the concentration needed to halve the response being measured. Regarding `O=c1ccc2ccc(O)c(O)c2o1` [DAPHNETIN], the MIC against Staphylococcus aureus [1] was in the range of 2 to 8 µg/mL (≈ 11.2 to 44.9 µM); against Klebsiella pneumoniae, 32 to 128 µg/mL (≈ 180 to 719 µM); against Enterococcus faecalis [2], 4 to 16 µg/mL (≈ 22.5 to 89.8 µM); against Staphylococcus aureus [3], 2 to 8 µg/mL (≈ 11.2 to 44.9 µM); with Escherichia coli, 32 to 128 µg/mL (≈ 180 to 719 µM). For the same molecule, the IC50 in [12] was found to be 57 µM; in [13] it was 73 µM.
On to `O=C(O)/C=C/c1ccc(O)cc1` [COUMARIC ACID], for which the minimal inhibitory concentration (MIC) lay in the range of 2 to 8 µg/mL (≈ 12.2 to 48.7 µM) against Staphylococcus aureus [1]; 32 to 128 µg/mL (≈ 195 to 780 µM) with Klebsiella pneumoniae; 4 to 16 µg/mL (≈ 24.4 to 97.5 µM) against Enterococcus faecalis [2]; 2 to 8 µg/mL (≈ 12.2 to 48.7 µM) in the assay on Staphylococcus aureus [3]; 32 to 128 µg/mL (≈ 195 to 780 µM) in the assay with Escherichia coli. Moreover, the concentration for half-maximal inhibition (IC50) in assay [13] was 190 µM.
`COc1cc(OC)c(OC)cc1/C=C/C(=O)O`: the MIC lay within 2 to 8 µg/mL (≈ 8.39 to 33.6 µM) against Staphylococcus aureus [1]; 32 to 128 µg/mL (≈ 134 to 537 µM) against Klebsiella pneumoniae; 4 to 16 µg/mL (≈ 16.8 to 67.2 µM) with Enterococcus faecalis [2]; 2 to 8 µg/mL (≈ 8.39 to 33.6 µM) against Staphylococcus aureus [3]; 32 to 128 µg/mL (≈ 134 to 537 µM) against Escherichia coli. Moreover, the IC50 in assay [13] is 149 µM.
Consider `COc1ccc(/C=C/C(=O)O)cc1OC` [O,O'-DIMETHYLCAFFEIC ACID], for which the MIC against Staphylococcus aureus [1] is 2 to 8 µg/mL (≈ 9.61 to 38.4 µM); against Klebsiella pneumoniae, 32 to 128 µg/mL (≈ 154 to 615 µM); with Enterococcus faecalis [2] it was 4 to 16 µg/mL (≈ 19.2 to 76.8 µM); against Staphylococcus aureus [3], 2 to 8 µg/mL (≈ 9.61 to 38.4 µM); in the assay on Escherichia coli, 32 to 128 µg/mL (≈ 154 to 615 µM). Further, the IC50 in [13] was greater than 250 µM.
In the case of `C=CCc1ccc(O)c(OC)c1` [EUGENOL], the minimal inhibitory concentration (MIC) with Staphylococcus aureus [1] fell in the range of 2 to 8 µg/mL (≈ 12.2 to 48.7 µM); in the assay with Klebsiella pneumoniae, 32 to 128 µg/mL (≈ 195 to 780 µM); against Enterococcus faecalis [2] it was 4 to 16 µg/mL (≈ 24.4 to 97.4 µM); with Enterococcus faecalis [14], 4 to 16 µg/mL (≈ 24.4 to 97.4 µM); against Staphylococcus aureus [3], 2 to 8 µg/mL (≈ 12.2 to 48.7 µM); with Escherichia coli, 32 to 128 µg/mL (≈ 195 to 780 µM). The IC50 in assay [13] was greater than 250 µM.
For `O=C(Oc1cc(OC(=O)c2cc(O)c(O)c(O)c2)c2ccccc2c1)c1cc(O)c(O)c(O)c1`, the dissociation constant (Kd) in assay [11] was in the range of 0.4 to 0.8 µM. In the assay with Bacillus subtilis, the lowest concentration to inhibit growth (MIC) was 100 µM (≈ 46.4 µg/mL).
As for `CCc1ccc(C(=O)Nc2cc3nc(C4CCCCC4)[nH]c3cc2N(C)C)cc1`, the MIC99 in [4], in assay [5], in assay [6] and in assay [8] was 0.16 µg/mL (≈ 0.41 µM) throughout.
With `CCCCOC(=O)Nc1cc2nc(C3CCCCC3)[nH]c2cc1N(C)C`, the MIC99 in [4] was determined as 0.06 µg/mL (≈ 0.167 µM); in [5], 0.06 µg/mL (≈ 0.167 µM); in assay [6], 0.13 µg/mL (≈ 0.363 µM); in assay [8], 0.06 µg/mL (≈ 0.167 µM).
As to `COc1cc2cc3c4cc(-c5ccc(-c6ccccc6)cc5)c(OC)c(OC)c4cc[n+]3c(C(C)C)c2cc1OC`, the minimum inhibitory concentration (MIC) against Staphylococcus aureus [1] lay within 2 to 8 µg/mL; against Klebsiella pneumoniae, 32 to 128 µg/mL; against Enterococcus faecalis [2] it was 4 to 16 µg/mL; against Staphylococcus aureus [3] it was 2 to 8 µg/mL; in the assay on Escherichia coli it was 32 to 128 µg/mL.
`O=C(Oc1cc(OC(=O)c2cccc(O)c2)cc(-c2ccccc2)c1)c1cccc(O)c1` registered a Kd in [11] of 0.5 µM.
